Source: patent US20110183928A1 (BAYER SCHERING PHARMA AKTIENGESELLSCHAFT, priority 2008, published 2011)
pIC50: −log10 of the molar value.

Key:
Assay type in all cases: cell-based
androgen receptor (AR) = target: T1, androgen receptor (AR) (Homo sapiens, UniProt P10275); experiment: Cellular in vitro assay, GAL4-AR chimera luciferase reporter in CHO K1 cells (selectivity); details: GAL4-AR ligand-binding domain chimera, agonist dihydrotestosterone
T1 construct: of the androgen receptor (AR, amino acids 667-919); expressed in transfected cells; host or cells: CHO K1
T1 sequence (P10275 667-919): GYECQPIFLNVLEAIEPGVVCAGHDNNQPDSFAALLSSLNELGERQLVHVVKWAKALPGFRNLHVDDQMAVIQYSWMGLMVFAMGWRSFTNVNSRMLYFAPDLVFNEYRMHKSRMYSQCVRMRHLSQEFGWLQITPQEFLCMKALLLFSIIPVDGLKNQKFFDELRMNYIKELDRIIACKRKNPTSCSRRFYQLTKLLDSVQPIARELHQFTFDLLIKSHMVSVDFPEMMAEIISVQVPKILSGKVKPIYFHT
Description: (§1) 1. Cellular In Vitro Assay to Determine the Inhibitory MR Activity and MR Selectivity Compared with Other Steroid Hormone Receptors
(§2) Antagonists of the human mineralocorticoid receptor (MR) are identified, and the efficacy of the compounds described herein is quantified with the aid of a recombinant cell line. The cell is originally derived from a hamster ovary epithelial cell (Chinese Hamster Ovary, CHO K1, ATCC: American Type Culture Collection, VA 20108, USA).
(§3) An established chimera system in which the ligand-binding domains of human steroid hormone receptors are fused to the DNA-binding domain of the yeast transcription factor GAL4 is used in this CHO K1 cell line. The GAL4-steroid hormone receptor chimeras produced in this way are cotransfected and stably expressed with a reporter construct in the CHO cells.
(§4) To generate the GAL4-steroid hormone receptor chimeras, the GAL4 DNA-binding domain (amino acids 1-147) from the vector pFC2-dbd (from Stratagene) is cloned with the PCR-amplified ligand-binding domains of the mineralocorticoid receptor (MR, amino acids 734-985), of the glucocorticoid receptor (GR, amino acids 443-777), of the progesterone receptor (PR, amino acids 680-933) and of the androgen receptor (AR, amino acids 667-919) into the vector pIRES2 (from Clontech). The reporter construct, which contains five copies of the GAL4 binding site upstream of a thymidine kinase promoter, leads to expression of firefly luciferase (Photinus pyralis) after activation and binding of the GAL4-steroid hormone receptor chimeras by the respective specific agonists aldosterone (MR), dexamethasone (GR), progesterone (PR) and dihydrotestosterone (AR).
(§5) The MR, GR, PR and AR cells are plated out in medium (Optimem, 2.5% FCS, 2 mM glutamine, 10 mM HEPES) in 96-well (or 384- or 1536-well) microtiter plates the day before the assay, and are kept in a cell incubator (96% air humidity, 5% v/v CO2, 37° C.). On the day of the assay, the substances to be tested are taken up in the abovementioned medium and added to the cells. About 10 to 30 minutes after addition of the test substances, the respective specific agonists of the steroid hormone receptors are added. After a further incubation time of 5 to 6 hours, the luciferase activity is measured with the aid of a video camera. The relative light units measured as a function of the substance concentration give a sigmoidal stimulation curve. The IC50 values are calculated with the aid of the computer program GraphPad PRISM (Version 3.02).

[1] = target: T2, glucocorticoid receptor (GR) (Homo sapiens, UniProt P04150); experiment: Cellular in vitro assay, GAL4-GR chimera luciferase reporter in CHO K1 cells (selectivity); details: GAL4-GR ligand-binding domain chimera, agonist dexamethasone
T2 construct: of the glucocorticoid receptor (GR, amino acids 443-777); expressed in transfected cells; host or cells: CHO K1
T2 sequence (P04150 443-777): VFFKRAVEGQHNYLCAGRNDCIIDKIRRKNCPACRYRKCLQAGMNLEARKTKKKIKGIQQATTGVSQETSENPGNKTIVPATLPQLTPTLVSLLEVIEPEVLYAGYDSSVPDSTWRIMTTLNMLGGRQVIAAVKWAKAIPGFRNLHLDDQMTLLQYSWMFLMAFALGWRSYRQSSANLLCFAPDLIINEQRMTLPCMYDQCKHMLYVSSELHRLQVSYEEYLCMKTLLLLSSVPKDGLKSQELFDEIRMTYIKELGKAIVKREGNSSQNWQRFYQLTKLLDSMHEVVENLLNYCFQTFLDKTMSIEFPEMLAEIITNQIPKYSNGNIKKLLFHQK
Description: as §1, §2, §3, §4, §5

[2] = target: T3, human mineralocorticoid receptor (MR) (Homo sapiens, UniProt P08235); experiment: Cellular in vitro assay, GAL4-MR chimera luciferase reporter in CHO K1 cells (inhibitory MR activity); details: GAL4-MR ligand-binding domain chimera, agonist aldosterone
T3 construct: expressed in transfected cells; host or cells: CHO K1
T3 sequence (P08235 734-984 limits assumed): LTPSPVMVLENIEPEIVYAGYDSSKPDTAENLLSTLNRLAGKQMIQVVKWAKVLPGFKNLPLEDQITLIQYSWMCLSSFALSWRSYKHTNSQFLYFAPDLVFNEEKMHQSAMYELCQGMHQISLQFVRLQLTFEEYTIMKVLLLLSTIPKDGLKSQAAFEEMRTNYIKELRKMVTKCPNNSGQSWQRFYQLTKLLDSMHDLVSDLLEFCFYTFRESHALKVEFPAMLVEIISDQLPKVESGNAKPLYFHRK
Description: as §1, §2, §3, §4, §5

[3] = target: T4, progesterone receptor (PR) (Homo sapiens, UniProt P06401); experiment: Cellular in vitro assay, GAL4-PR chimera luciferase reporter in CHO K1 cells (selectivity); details: GAL4-PR ligand-binding domain chimera, agonist progesterone
T4 construct: of the progesterone receptor (PR, amino acids 680-933); expressed in transfected cells; host or cells: CHO K1
T4 sequence (P06401 680-933): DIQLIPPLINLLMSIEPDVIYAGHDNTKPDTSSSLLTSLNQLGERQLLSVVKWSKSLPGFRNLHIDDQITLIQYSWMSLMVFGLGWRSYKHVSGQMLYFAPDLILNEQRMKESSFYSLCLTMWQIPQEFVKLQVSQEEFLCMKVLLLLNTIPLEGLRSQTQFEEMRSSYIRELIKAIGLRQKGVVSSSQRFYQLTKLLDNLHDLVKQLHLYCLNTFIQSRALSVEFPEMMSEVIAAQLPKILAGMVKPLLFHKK
Description: as §1, §2, §3, §4, §5

| SMILES | pIC50 (androgen receptor (AR)) | pIC50 [1] | pIC50 [2] | pIC50 [3] |
| --- | --- | --- | --- | --- |
| CCc1cccc2c(C(CCCO)c3ccc(C(F)(F)F)cc3)c[nH]c12 (single isomer, unassigned) [Example 3-1, 4-(7-Ethyl-1H-indol-3-yl)-4-[4-(trifluoromethyl)phenyl]butan-1-ol] | 5.44 | 5.19 | 6.38 | 5.23 |
| CCc1cccc2c(C(CCCC#N)c3ccc(C(F)(F)F)cc3)c[nH]c12 (single isomer, unassigned) [Example 4-1, 5-(7-Ethyl-1H-indol-3-yl)-5-[4-(trifluoromethyl)phenyl]pentanenitrile] | 5.70 | 5.63 | 6.85 | 5.76 |
| Cc1cccc2c(C(CCCC#N)c3ccc(C(F)(F)F)cc3)c[nH]c12 (single isomer, unassigned) [Example 8-1, 5-(7-Methyl-1H-indol-3-yl)-5-[4-(trifluoromethyl)phenyl]pentanenitrile] | 5.82 | 5.29 | 6.70 | 5.57 |
| CS(=O)(=O)Nc1cccc2c(C(CCC#N)c3ccc(C(F)(F)F)cc3)c[nH]c12 (single isomer, unassigned) [Example 17-1] | 5.64 | 5.66 | 7.70 | 5.35 |

The next molecules have a higher pIC50 [1] than those just listed; values first:

| pIC50 (androgen receptor (AR)) | pIC50 [1] | pIC50 [2] | pIC50 [3] | SMILES |
| --- | --- | --- | --- | --- |
|  | 6.15 | 6.48 |  | CS(=O)(=O)Nc1cccc2c(C(CCO)c3ccc(C(F)(F)F)cc3)c[nH]c12 (stereo not shown) [Example 16, N-(3-{3-Hydroxy-1-[4-(trifluoromethyl)phenyl]propyl}-1H-indol-7-yl)methanesulfonamide] |
| 5.38 | 6.41 | 7.05 | 5.47 | CCc1cccc2c(C(CCC#N)c3ccc4ccccc4c3)c[nH]c12 (stereo not shown) [Example 34] |
